Patent US20030092757A1, “Favorable modulation of health-related quality of life and health-related quality-adjusted time-to-progression of disease in patients with prostate cancer” (priority 2001, published 2003)

Tested on: patients having hormone refractory prostate cancer (HRPCa)
Experiment: Area under the Curve (AUC) analysis of health-related QoL domain scores, one year follow-up assumed
Format: in vivo, human
Source text: The Kaplan-Meier product limit method may provide biased results if study data are obtained under certain conditions such as staggered entry of subjects into the study and/or incomplete follow-up (Biometrics. 1989; 5:781-795). Thus, a second analysis was implemented to verify that the conclusions derived from the Kaplan-Meier method would remain robust to the length of follow-up. The assumption was that all patients were followed for one year. Patients who discontinued from the study prior to one year of observation had their last observation for all health-related QoL domains carried forward through the remainder of the year. Similarly, patients who had not completed one year of observation had their health-related QoL data carried forward through one year. If the patient experienced a clinical event within the one year period, the last observation was not carried forward. The Area under the Curve (AUC) value for each domain was computed by multiplying the health-related QoL domain score by the respective duration of that score. Finally, AUC values were aggregated across all subjects within each respective treatment group (atrasentan (10 mg), atrasentan (2.5 mg), and placebo). Aggregated AUC values for each domain were compared for differences between treatment groups using a t-test.

## CCCCN(CCCC)C(=O)CN1C[C@H](c2ccc3c(c2)OCO3)[C@@H](C(=O)O)[C@@H]1c1ccc(OC)cc1 [atrasentan, (2R,3R,4S)-2-(4-methoxyphenyl)-4-(1,3-benzodioxol-5-yl)-1-(((N,N-dibutylamino)carbonyl)methyl)pyrrolidine-3-carboxylic acid]
2.5 mg, except for dyspnea, social/family, functional well-being, and FACT-P domain scores
  AUC results: significantly improved
10 mg vs 2.5 mg
  AUC analysis, responses in the 10 mg and 2.5 mg treatment groups: not statistically differentiable
Intent to Treat population
  AUC analysis, atrasentan treatment vs placebo groups: no statistical differences
per-protocol population, every health-related QoL domain score
  AUC analysis vs placebo: strong trends in favor
Physical functioning, social functioning, and pain, p<0.05
  AUC for the health-related QoL domain scores: significantly longer
